These results are taken from patent publication US12459951B2, “Compounds that interact with RAS superfamily proteins for treatment of cancers, inflammatory diseases, rasopathies, and fibrotic disease” (SHY Therapeutics, LLC, priority 2022, dated 2025).

SMILES strings stand for the structures.

The nature of data set [1]: Mouse Liver Microsome Metabolic Stability Assay. As to conditions: pH 7.4, Mouse liver microsomes, 37° C., NADPH, read-out: t½. The format is in vitro ADME. As to the method:
Biological Example 10: Assessment of Metabolic Stability in Mouse Liver Microsomes
Metabolic Stability Assay: Microsomal incubations were carried out in 96-well plates in 5 aliquots of 30 μL each (one for each time point). Liver microsomal incubation medium comprised of phosphate buffer (100 mM, pH 7.4), MgCl2 (3.3 mM), NADPH (3 mM), glucose-6-phosphate (5.3 mM), glucose-6-phosphate dehydrogenase (0.67 units/ml) with 0.42 mg of liver microsomal protein per mL. In the control reactions the NADPH-cofactor system was substituted with phosphate buffer. Test compounds (2 μM, final solvent concentration 1.6%) were incubated with microsomes at 37° C., shaking at 100 rpm. Each reaction was performed in duplicates. Five time points over 40 minutes were analyzed. The reactions were stopped by adding 5 volumes of methanol containing internal standard to incubation aliquots, followed by protein sedimentation by centrifuging at 5500 rpm for 4 minutes. Supernatants were analyzed using the HPLC system coupled with tandem mass spectrometer.
The elimination constant (kel), half-life (t1/2) and intrinsic clearance (Clint) were determined in plot of […] versus time, using linear regression analysis:
In order to indicate the quality of the linear regression analysis, the R (correlation coefficient) values are provided. In some cases, the last time point is excluded from the calculations to ensure acceptable logarithmic linearity of decay.
Table 9 show metabolic stability data for selected compounds tested in the Mouse Liver Microsome Metabolic Stability assay described above.
In general terms: Liver microsomes are vesicles of endoplasmic reticulum, rich in cytochrome P450 enzymes.

Data set [2] in a line: Kinetic Solubility Assay in pH 7.4 Buffer + 2% DMSO. The format is physicochemical. As to conditions: phosphate-buffered saline pH 7.4 with 2% DMSO, aqueous buffer, kinetic from dmso stock, 25° C., two hours. The protocol: Biological Example 9: Kinetic Solubility
Kinetic solubility assay in pH 7.4 Buffer+2% DMSO (“Kinetic Solubility Assay) was performed according to the following protocol: Briefly, using a 20 mM stock solution of the tested compounds in 100% DMSO, dilutions were prepared to a theoretical concentration of 400 μM in duplicates in phosphate-buffered saline pH 7.4 (138 mM NaCl, 2.7 mM KCl, 10 mM K-phosphate) with 2% final DMSO. The tested compounds dilutions in PBS were further allowed to equilibrate at 25° C. on a thermostatic shaker for two hours and then filtered through HTS filter plates using a vacuum manifold. The filtrates of the test compounds were diluted 2-fold with acetonitrile with 2% DMSO before measuring.
In parallel, using a 20 mM stock solution of the tested compounds in 100% DMSO, dilutions were prepared to theoretical concentrations of 0 μM (blank), 10 μM, 25 μM, 50 μM, 100 μM, and 200 μM in 50% acetonitrile/PBS with 2% final DMSO to generate calibration curves. Ondansetron was used as a reference compound to control proper assay performance. 200 μL of each sample was transferred to a 96-well plate and measured in the 230-550 nm range with a 5 nm step.
The concentrations of compounds in PBS filtrate are calculated using a dedicated Microsoft Excel calculation script. Proper absorbance wavelengths for calculations are selected for each compound manually based on absorbance maximums (absolute absorbance unit values for the minimum and maximum concentration points within the 0-3 OD range). Each final dataset is visually evaluated by the operator, and goodness of fit (R2) is calculated for each calibration curve. The effective range of this assay is approximately 2-400 μM and the compounds returning values close to the upper limit of the range may have higher actual solubility (e.g., 5′-deoxy-5-fluorouridine).
Table 8 show kinetic solubility data for selected compounds tested in the Kinetic Solubility assay described above.

Another data set relates to Erk1/2 phosphorylation. As to the kind of experiment: Erk1/2 Phosphorylation Assay (western blot), Panc-1. As to conditions: at 10 μM, * = activation. The format is cell-based, human. The method in brief: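 Phospho-Erk1/2 (Thr202/Tyr204) was detected by western blot in lysates of Panc-1 cells (KRas G12D). These had 6 h, 37° C exposure to 10 μM compound or a dilution series for IC50, in 0.3% DMSO. Cells were either starved overnight in 0.5% FBS with a 15-min 1.5 ng/ml EGF pulse, or kept unstimulated in 10% FBS.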
In general terms: Immunoblotting shows a protein as a band on a membrane.

By solubility is commonly meant the concentration that dissolves in the medium under given conditions. Consider `COc1ccnc(Nc2nc(-c3nccn3C)nn3cc(-c4cccnc4)c(C)c23)c1` [Compound 157, N-(4-Methoxy-pyridin-2-yl)-5-methyl-2-(1-methyl-1H-imidazol-2-yl)-6-(pyridin-3-yl)pyrrolo[2,1-f][1,2,4]triazin-4-amine], for which, in data set [1], the half-life at 2 µM is over 10 min. Further, the solubility at 2 h in data set [2] was under 10 µM. For the same compound, the “% inh of Erk1/2 phosphorylation in Panc-1” value with Erk1/2 phosphorylation is recorded as “C* (46-84% activation)”.
The matching figures for `Cc1c(-c2ccn(C3CC3)n2)cn2nc(-c3nccn3C)nc(Nc3cc(N(C)C)ccn3)c12` [Compound 145, N^2-(6-(1-Cyclopropyl-1H-pyrazol-3-yl)-5-methyl-2-(1-methyl-1H-imidazol-2-yl)pyrrolo[2,1-f][1,2,4]triazin-4-yl)-N^4,N^4-dimethylpyridine-2,4-diamine]: over 10 min, 10 to 30 µM and “C* (46-84% activation)”.
